Results as given in US9157917B2, “Applications of Indoloindole and Indoloquinoline dyes” (Biosynth AG, priority 2010, dated 2015).
One block for each compound: values may come before it.

Experiments:
[1] = test system: various bacterial strains; test: Nonanoate indicators in buffered peptone water in polystyrene plates; assay type: cell-based; details: 0.2 mM, polystyrene plate, 37° C., excitation 360 nm, emission 460 nm
Procedure: Buffered peptone water containing either 0.4 mM Aldol™ 495 nonanoate or 0.2 mM 4-methylumbelliferyl nonanoate was dispensed in a microtiter plate and inoculated with about 700 cfu/ml of various bacterial strains. […] An excitation wavelength of 360 nm was used for both dyes, the emission wavelength was 560 nm for the Aldol™ 495 dye and 460 nm for the 4-methylumbelliferone.

[2] = Release of dyes from precursors through heat in PP tubes containing PE pellets; assay type: physicochemical; details: PP tubes and PE pellets (emptied and flushed with water) after heating for 40 min at 90° C.
Procedure: As a further example the release of Aldol™ 470-, 495-, and 515 dyes from various Aldol™ acetate precursors through heat is given: The compounds were incubated at room temperature and at 90° C. for 40 min in PP tubes containing PE pellets. […] Whereas for all tubes at room temperature neither coloration nor fluorescence was detected, the Aldol™ acetates but not the Aldol™ galactosides were instable at 90° C. and led to fluorescence of the PP and PE host (Table 2).

[3] = test system: E. coli; test: Fluorescence of colonies on membrane filters; assay type: cell-based; details: Naked nutrient agar, 0.4 mM, 14-16 hours at 37° C.
[4] = Stamping on LDPE film, stability to treatments; assay type: physicochemical
Procedure: Three pieces of felt were soaked with ethanol containing 0.5 mM of Aldol™ 470, Aldol™ 495 or Aldol™ 515 dye respectively. A stamp was pressed first on the felt then on a piece of low density polyethylene film. The film was left to dry for 15 minutes and then exposed to various treatments (Table 4).

[5] = Application of aqueous dye suspensions to PP tubes and PE pellets at different temperatures; assay type: physicochemical; details: for Fluorescence of PP tubes and PE pellets, comparison between dyes: 22° C., 37° C., 90° C.
Procedure: The application of dye to plastic can be improved by increasing the temperature. Aqueous suspensions of Aldol™ 470, 495, 515 and 518 dyes in PP tubes containing PE pellets were incubated at three different temperatures (22° C., 37° C., and 90° C.). The resulting fluorescence of PP tubes and PE pellets was much stronger after incubation at 90° C. for 5 hours than after 24 hours incubation at 37° C. or 22° C. Incubation at 37° C. led to more fluorescence than incubation at 22° C. Fluorescence after incubation at 22° C. was very weak, except for PE pellets incubated in the presence of Aldol™ 495 dye and Aldol™ 515 dye.

[6] = Fluorescence of IO dyes in various hosts; assay type: physicochemical
Procedure: In this description various IO dyes are given as illustrative examples (Scheme I) but these examples shall not limit the invention in any way. It was discovered that IO/IQ dyes have a strong solvatochromic effect. When, for example, the 470-, 495- and 515-dyes were dissolved in a series of solvents, the fluorescence of the solution was higher the lower the polarity of the solvent was. […] It was also discovered that the fluorescence color might change with the solvent used.

[7] = Excitation and emission spectra of dye in polypropylene; assay type: physicochemical; details: in polypropylene microtiter plate
Procedure: The excitation and emission spectra of the Aldol™ 495 dye in PP were measured in a standard plate reader using a polypropylene microtiter plate that has been incubated with broth containing Aldol™ 495 beta-D-galactoside and an E. coli culture. […] The optimal excitation is at 310 nm (FIG. 1).

[8] = test system: E. coli; test: Cultures with paraffin oil overlay
[9] = test system: S. enteritidis; test: Cultures with paraffin oil overlay
[10] = paraffin oil overlay 0 μl, 16 h
[11] = paraffin oil overlay 0 μl, 21 h
[12] = paraffin oil overlay 0 μl, 40 h
[13] = paraffin oil overlay 50 μl, 16 h
[14] = paraffin oil overlay 50 μl, 21 h
[15] = paraffin oil overlay 50 μl, 40 h
[16] = paraffin oil overlay 300 μl, 16 h
[17] = paraffin oil overlay 300 μl, 21 h
[18] = paraffin oil overlay 300 μl, 40 h

SMILES: CCCCCCCCC(=O)Oc1ccc2c(C)cc(=O)oc2c1 [4-methylumbelliferyl nonanoate, reference compound]
Fluorescence of C9 esterase negative strains and sterile control [1]: strong fluorescence

SMILES: COc1ccc(C(=O)c2ccccc2-n2cc(NC(=O)[C@H](C)N)c3ccccc32)c(OC)c1 [Aldol™ 470 L-alanine amide]
Fluorescence of E. coli colonies [3]: No fluorescence

SMILES: COc1ccc(C(=O)c2ccccc2-n2cc(O[C@@H]3O[C@H](CO)[C@H](O)[C@H](O)[C@H]3O)c3ccccc32)c(OC)c1 [Aldol™ 470 beta-D-galactoside]
Color of tube [2]: No color
Fluorescence of tube [2]: No fluorescence

SMILES: COc1ccc(-c2c3n(c4ccccc24)-c2ccccc2C3=O)c(OC)c1 [Aldol™ 470 dye]
Fluorescence of imprint on LDPE film ([4]; After soaking for 18 h in ethanol): No fluorescence
Fluorescence of PP tubes and PE pellets after 90° C. for 5 hours versus 24 hours at 37° C. or 22° C. [5]: much stronger
Fluorescence color ([6]; Acetone): Green
Fluorescence intensity ([6]; Acetone): Strong
Fluorescence color ([6]; Ethanol): orange
Fluorescence color ([6]; Mineral oil): Green
Fluorescence intensity ([6]; Mineral oil): Medium
Fluorescence color ([6]; Paraffin oil): Green
Fluorescence intensity ([6]; Paraffin oil): Medium
Fluorescence intensity ([6]; Silicon oil): Weak

SMILES: Cn1cccc1-c1c2n(c3ccccc13)-c1cc(Cl)ccc1C2=O [Aldol™ 495 dye]
Emission maximum [7]: 510 nm
Optimal excitation [7]: 310 nm
Fluorescence of PP tubes and PE pellets after 90° C. for 5 hours versus 24 hours at 37° C. or 22° C. [5]: much stronger
Fluorescence of PP tubes and PE pellets, comparison between dyes [5]: more fluorescence than Aldol™ 515 dye
Fluorescence intensity ([6]; Acetone): Strong
Fluorescence color ([6]; Mineral oil): Green
Fluorescence color ([6]; Paraffin oil): Green
Fluorescence intensity ([6]; Silicon oil): Medium
Fluorescence color ([6]; Water): None
Fluorescence intensity ([6]; Water): None

Continued, in another order:

Color of tube [2]: Light yellow
SMILES: COc1ccc(C(=O)c2ccccc2-n2cc(OC(C)=O)c3ccccc32)c(OC)c1 [Aldol ™ 470 acetate]

Color of tube [2]: Very light green
SMILES: CC(=O)Oc1cn(-c2ccccc2C(=O)c2cccn2C)c2cc(Cl)ccc12 [Aldol ™ 495 acetate]

Color of tube [2]: Very light orange
SMILES: CC(=O)Oc1cn(-c2ccccc2C(=O)c2ccc(N(C)C)cc2)c2ccccc12 [Aldol ™ 515 acetate]

Stability of stamping on LDPE ([4]; under the conditions tested, compared with the other dyes): most stable
Fluorescence of PP tubes and PE pellets after 90° C. for 5 hours versus 24 hours at 37° C. or 22° C. [5]: much stronger
Fluorescence color ([6]; Acetone): Red
Fluorescence intensity ([6]; Acetone): Medium
Fluorescence color ([6]; Ethanol): Red
Fluorescence intensity ([6]; Ethanol): Weak
Fluorescence color ([6]; Mineral oil): Yellow
Fluorescence color ([6]; Silicon oil): Red
Fluorescence color ([6]; Water): Red
SMILES: CN(C)c1ccc(-c2c3n(c4ccccc24)-c2ccccc2C3=O)cc1 [Aldol™ 515 dye]
Fluorescence of PP tubes and PE pellets, comparison between dyes [5]: more fluorescence than Aldol™ 518 dye and Aldol™ 470 dye

Color of tube [2]: No color
Fluorescence of tube [2]: No fluorescence
SMILES: CN(C)c1ccc(C(=O)c2ccccc2-n2cc(O[C@@H]3O[C@H](CO)[C@H](O)[C@H](O)[C@H]3O)c3ccc(Cl)cc32)cc1 [Aldol™ 518 beta-D-galactoside]
Color [8, 10]: Red
Color [8, 11]: Red
Color [8, 12]: Red
Color [8, 13]: Red
Color [8, 14]: Red
Color [8, 15]: Red
Color [8, 16]: Red
Color [8, 17]: Red
Color [8, 18]: Red
Color [9, 10]: Beige
Color [9, 11]: Beige
Color [9, 12]: Beige
Color [9, 13]: Beige
Color [9, 14]: Beige
Color [9, 15]: Beige
Color [9, 16]: Beige
Color [9, 17]: Beige
Color [9, 18]: Beige

Fluorescence of PP tubes and PE pellets after 90° C. for 5 hours versus 24 hours at 37° C. or 22° C. [5]: much stronger
SMILES: CN(C)c1ccc(-c2c3n(c4ccccc24)-c2cc(Cl)ccc2C3=O)cc1 [Aldol™ 518 dye]
